Test [1] has as its system Mycobacterium intracellulare ATCC 13950. Put plainly: Antibacterial activity against nontuberculous mycobacteria, resazurin MIC50. Particulars: ATCC13950. It counts as cell-based. A general note: Resazurin is reduced to fluorescent resorufin, in cell work by metabolically active cells.
Test [2] relates to Mycobacterium avium ATCC 700898. The description is as above. In kind it is cell-based. Particulars: ATCC700898.
Test [3] concerns C. difficile. Put plainly: Antibacterial activity against Clostridium difficile, agar medium dilution MIC (CLSI). In kind it is cell-based. The note with it: Clostridioides difficile.
Test [4] deals with Mycobacterium abscessus ATCC 19977. Kind of test: Antibacterial activity against nontuberculous mycobacteria, resazurin MIC50. In kind it is cell-based. Particulars: Mycobacteroides abscessus, ATCC19977.
The subject of test [5] is IL-6. Kind of test: Anti-inflammatory efficacy: IL-6 secretion in LPS-treated RAW 264.7 cells (ELISA). In kind it is cell-based, mouse. The note with it: RAW 264.7 cells, 5, 10, 20, 40 ug/mL plus 1 ug/ml LPS, 24 hours, versus LPS only. The method, then: (§1) In order to confirm the anti-inflammatory effect of the micrococcin compound (Compound 13; Micrococcin P2) prepared in Example 1 of the present invention, an inflammatory cytokine secretion amount was measured.
(§2) RAW 264.7 cells which are mouse-derived macrophage cell lines were distributed from Korean Cell Line Bank (KCLB), and a DMEM (Dulbeccon's modified Eagle's medium; PAA, Austria) medium including 1% Penicillin-Streptomycin and 10% FBS (fetal bovine serum; Gibco Laboratories) was used. Cells were cultured under the conditions of 37° C. and 5% CO2.
(§3) The cultured RAW 264.7 cells were dispensed at 2x10^5 cells/well in a 24-well plate, the micrococcin compound (Compound 13; Micrococcin P2) prepared in Example 1 was treated by concentrations (5, 10, 20, 40 ug/mL) and then treated 1 ug/ml of lipopolysaccharide (LPS), and culture was performed in an incubator (5% CO2, 37° C.) for 24 hours.
(§4) A control group was a cell group which was not treated, and as a negative control group, a cell group treated with only LPS was used.
(§5) After completion of culture, a medium of each well was collected (at 4° C., 12,000 rpm for 10 minutes) and centrifuged, a supernatant was taken, and the concentration of inflammatory cytokine (IL-6, Il-1B) in the medium was quantified using an ELISA kit (R&D system, BD).

In test [6] the test system is M. tuberculosis. Put plainly: Antibacterial activity against tuberculosis bacteria, resazurin (REMA) MIC50. It counts as cell-based. Particulars: Mycobacterium tuberculosis, read-out: MIC50.
For test [7], the system named is Il-1B. Kind of test: Anti-inflammatory efficacy: IL-1B secretion in LPS-treated RAW 264.7 cells (ELISA). It counts as cell-based, mouse. The note with it: RAW 264.7 cells, 5, 10, 20, 40 ug/mL plus 1 ug/ml LPS, 24 hours, versus LPS only. The method, then: as §1, §2, §3, §4, §5
For orientation: In an ELISA, binding on a coated surface is turned into a signal by an enzyme label.

Test [8] has as its system C. difficile Ribotype 027. Put plainly: Efficacy in Clostridium difficile-infected mouse model (survival). In kind it is in vivo. Particulars: C57BL/6J mouse, 30 mg/kg orally once a day for 5 days.
[9] abbreviates: Mycobacterium intracellulare ATCC 13950, read-out: MIC50.
The mark [10] stands for this setting: Mycobacterium avium ATCC 700898, read-out: MIC50.
Setting [11] is: ATCC9689, C. difficile ATCC 9689, read-out: MIC.
Setting [12] is: ATCC17858, C. difficile ATCC 17858, read-out: MIC.
The mark [13] stands for this setting: ATCC43255, C. difficile ATCC 43255, read-out: MIC.
Where [14] appears, read: ATCC51695, C. difficile ATCC 51695, read-out: MIC.
The mark [15] stands for this setting: ATCCBAA1871, C. difficile ATCC BAA-1871, read-out: MIC.
The mark [16] stands for this setting: C. difficile Clinical isolate #1, read-out: MIC.
The mark [17] stands for this setting: C. difficile Clinical isolate #2, read-out: MIC.

Values after ≈ are worked out from the molar mass of the structure shown. Like-named read-outs stand apart in the source and are kept apart here.

As usually defined, the MIC50 is the lowest concentration that inhibits either 50% of growth or 50% of the strains tested, depending on the study. As for `CC[C@H]1OC(=O)[C@H](C)[C@@H](O[C@H]2C[C@@](C)(OC)[C@@H](O)[C@H](C)O2)[C@H](C)[C@@H](O[C@@H]2O[C@H](C)C[C@H](N(C)C)[C@H]2O)[C@](C)(OC)C[C@@H](C)C(=O)[C@H](C)[C@@H](O)[C@]1(C)O` [CLR, Clarithromycin], the MIC50 in test [1] (setting [9]) was 0.143 µM (≈ 0.107 µg/mL); in test [2] (setting [10]), 0.076 µM (≈ 0.0568 µg/mL).
In general, MIC refers to the least concentration at which growth counts as inhibited. As for `Cc1ncc([N+](=O)[O-])n1CCO` [MDZ, Metronidazole], the minimal inhibitory concentration (MIC) was 1 µg/mL (≈ 5.84 µM) in test [3] (setting [11]); 1 µg/mL (≈ 5.84 µM) in test [3] (setting [12]); 2 µg/mL (≈ 11.7 µM) in test [3] (setting [13]); 2 µg/mL (≈ 11.7 µM) in test [3] (setting [14]); 2 µg/mL (≈ 11.7 µM) in test [3] (setting [15]); 1 µg/mL (≈ 5.84 µM) in test [3] (setting [16]). In test [3] (setting [17]), the minimum inhibitory concentration (MIC) was 2 µg/mL (≈ 11.7 µM).
As to `COc1c(N2C[C@@H]3CCCN[C@@H]3C2)c(F)cc2c(=O)c(C(=O)O)cn(C3CC3)c12` [MXF, Moxifloxacin], the MIC in test [3] (setting [11]) was found to be 1 µg/mL (≈ 2.49 µM); in test [3] (setting [12]), 2 µg/mL (≈ 4.98 µM); in test [3] (setting [13]), 2 µg/mL (≈ 4.98 µM); in test [3] (setting [14]), 2 µg/mL (≈ 4.98 µM); in test [3] (setting [15]), 32 µg/mL (≈ 79.7 µM); in test [3] (setting [16]), 32 µg/mL (≈ 79.7 µM). The minimal inhibitory concentration (MIC) in test [3] (setting [17]) came out at 2 µg/mL (≈ 4.98 µM).
On to `C/C=C(\NC(=O)c1csc(-c2csc(-c3ccc4c(n3)-c3csc(n3)[C@H]([C@@H](C)O)NC(=O)c3csc(n3)[C@H](C(C)C)NC(=O)c3csc(n3)/C(=C/C)NC(=O)[C@H]([C@@H](C)O)NC(=O)c3csc-4n3)n2)n1)C(=O)NCC(C)=O` [Micrococcin P2], for which the MIC50 in test [4] turned out to be 0.654 µM (≈ 0.747 µg/mL); in test [6] (H37RV, M. tuberculosis H37Rv), 0.089 µM (≈ 0.102 µg/mL); in test [6] (Pan-susceptible isolate #2 (Pan-S2)), 0.199 µM (≈ 0.227 µg/mL); in test [6] (Pan-susceptible isolate #4 (Pan-S4)), 0.356 µM (≈ 0.407 µg/mL); in test [6] (Pan-susceptible isolate #6 (Pan-S6)), 0.354 µM (≈ 0.404 µg/mL); in test [6] (Pan-susceptible isolate #7 (Pan-S7)), 0.208 µM (≈ 0.238 µg/mL). Also, the MIC50 in test [1] (Mycobacterium intracellulare) was 0.033 µM (≈ 0.0377 µg/mL); in test [2] (Mycobacterium avium) it was 0.028 µM (≈ 0.032 µg/mL). Moreover, in test [5], the “secretion amount of IL-6” value was “significantly decreased”. Moreover, the “secretion amount of IL-1B” value in test [7] was “significantly decreased”. In addition, the “death by C. difficile recurrence after drug administration” value in test [8] (followed about 2 weeks) is recorded as “no death individual occurred by C. difficile recurrence”. This compound had a survival rate in test [8] (survival followed about 2 weeks) of 100%. Also, the MIC worked out at 0.5 µg/mL (≈ 0.438 µM) in test [3] (setting [11]); 1 µg/mL (≈ 0.875 µM) in test [3] (setting [12]); 2 µg/mL (≈ 1.75 µM) in test [3] (setting [13]); 1 µg/mL (≈ 0.875 µM) in test [3] (ATCC51695); 1 µg/mL (≈ 0.875 µM) in test [3] (setting [15]); 1 µg/mL (≈ 0.875 µM) in test [3] (setting [16]). Besides, the MIC in test [3] (setting [17]) came out at 1 µg/mL (≈ 0.875 µM).
Regarding `CO[C@H]1/C=C/O[C@@]2(C)Oc3c(C)c(O)c4c(O)c(c(/C=N/N5CCN(C)CC5)c(O)c4c3C2=O)NC(=O)/C(C)=C\C=C\[C@H](C)[C@H](O)[C@@H](C)[C@@H](O)[C@@H](C)[C@H](OC(C)=O)[C@@H]1C` [RIF, Rifampicin], the values for the MIC50 in test [1] (setting [9]) and in test [2] (setting [10]) were 0.38 µM (≈ 0.313 µg/mL) and 6.6 µM (≈ 5.43 µg/mL), respectively.
`CN[C@H](CC(C)C)C(=O)N[C@H]1C(=O)N[C@@H](CC(N)=O)C(=O)N[C@H]2C(=O)N[C@H]3C(=O)N[C@H](C(=O)N[C@H](C(=O)O)c4cc(O)cc(O)c4-c4cc3ccc4O)[C@H](O)c3ccc(c(Cl)c3)Oc3cc2cc(c3O[C@@H]2O[C@H](CO)[C@@H](O)[C@H](O)[C@H]2O[C@H]2C[C@](C)(N)[C@H](O)[C@H](C)O2)Oc2ccc(cc2Cl)[C@H]1O` [VAN, Vancomycin]: the MIC came to 2 µg/mL (≈ 1.38 µM) in test [3] (setting [11]); 1 µg/mL (≈ 0.69 µM) in test [3] (setting [12]); 1 µg/mL (≈ 0.69 µM) in test [3] (setting [13]); 2 µg/mL (≈ 1.38 µM) in test [3] (setting [14]); 1 µg/mL (≈ 0.69 µM) in test [3] (setting [15]); 4 µg/mL (≈ 2.76 µM) in test [3] (setting [16]). In addition, in test [3] (setting [17]), the MIC stood at 1 µg/mL (≈ 0.69 µM).

These data come from patent US20240277800A1, “PHARMACEUTICAL COMPOSITION COMPRISING MACROCOSINE COMPOUND AND METHOD FOR PREPARING MACROCOSINE COMPOUND” (priority 2021, published 2024).
